Values after ≈ are worked out from the molar mass of the structure shown.
How the values were obtained:
M. luteus = type: in vitro ADME
Protocol: Each test compound and 50 μl of a methanol solution (10,000 γ) were added to 950 μl of thawed rat plasma and the resulting mixture was incubated at 37° C. A 20 μl portion of the mixture was sampled after 0, 1, 3, 6 and 24 hours and added to 980 μl of 0.05M phosphate buffer (pH 7.2). A 20 μl portion of the sample solution was used to measure antibacterial activity against M. luteus. Separately, the calibration curve was prepared by using a methanol solution containing each test compound. The starting activity of each compound in the plasma was referred to as 100%.
Changes in the antibacterial activities of miokamycin and the compound (14) against M. luteus were measured in the same manner as described above except for using fresh rat plasma in place of thawed rat plasma. The fresh rat plasma was prepared by collecting 50 ml of blood from five rats, treating the blood with heparin and subjecting it to centrifugation to obtain plasma.

gram-positive bacteria = assay: Antibacterial activities against gram-positive bacteria (summary of Table 1); type: cell-based; details: in words
Protocol: (§1) Antibacterial activities of the compounds of formula (I) are shown in Table 1 in terms of minimum inhibitory concentration (MIC).
(§2) Minimum inhibitory concentration was determined by the agar plate dilution method. Test strains were subjected to seed culture using Sensitivity test broth (STB, Nissui Pharmaceutical) except that the strains belonging to the genus Streptococcus, Branhamella and Haemophilus were cultured on blood agar plate. A 5 μl portion of cell suspension of the test strains having about 10^6 CFU/ml was inoculated into Sensitivity disk agar (SDA, Nissui Pharmaceutical) supplemented with 5% horse blood and incubated at 37° C. for 20 hours. Then, MIC was measured.

Sta. aureus MS15027 = assay: Antibacterial activity (MIC), agar plate dilution method; type: cell-based; details: Staphylococcus aureus; 37° C., 20 hours; Sta. aureus MS15027; read-out: Antibacterial activity (MIC)
Protocol: as §1, §2

Ent. faecalis W-73 = assay: as above; type: cell-based; details: Enterococcus faecalis, W73, 37° C., 20 hours
Protocol: as §1, §2

Sta. aureus M133 = assay: as above; type: cell-based; details: Staphylococcus aureus; 37° C., 20 hours; Sta. aureus M133; read-out: Antibacterial activity (MIC)
Protocol: as §1, §2

K. pneumoniae PC1602 = assay: as above; type: cell-based; details: Klebsiella pneumoniae, 37° C., 20 hours
Protocol: as §1, §2

Sta. aureus M126 = assay: as above; type: cell-based; details: Staphylococcus aureus, 37° C., 20 hours
Protocol: as §1, §2

S. Pyogenes Cook = assay: as above; type: cell-based; details: Streptococcus pyogenes, 37° C., 20 hours, blood agar seed culture
Protocol: as §1, §2

S. pneumoniae Type 1 = assay: as above; type: cell-based; details: Streptococcus pneumoniae, TYPE1, 37° C., 20 hours, blood agar seed culture
Protocol: as §1, §2

[1] = system: Sta. aureus MS15009/pMS98; assay: as above; type: cell-based; details: Staphylococcus aureus, MS15009/PMS98, 20 h, read-out: Antibacterial activity (MIC)
Protocol: as §1, §2

M. luteus ATCC 9341 = assay: as above; type: cell-based; details: Micrococcus luteus, ATCC9341, 37° C., 20 hours
Protocol: as §1, §2

[2] = system: Sta. epidermidis ATCC 14990; assay: as above; type: cell-based; details: Staphylococcus epidermidis, ATCC14990; 37° C., 20 hours; Sta. epidermidis ATCC 14990; read-out: Antibacterial activity (MIC)
Protocol: as §1, §2

S. pneumoniae IP692 = assay: as above; type: cell-based; details: Streptococcus pneumoniae, 37° C., 20 hours, blood agar seed culture
Protocol: as §1, §2

Sta. aureus MS15026 = assay: as above; type: cell-based; details: Staphylococcus aureus, 37° C., 20 hours
Protocol: as §1, §2

B. catarrhalis W-0506 = assay: as above; type: cell-based; details: Moraxella catarrhalis, W0506; 37° C., 20 hours; blood agar seed culture; B. catarrhalis W-0506; read-out: Antibacterial activity (MIC)
Protocol: as §1, §2

E. coli NIHJ JC-2 = assay: as above; type: cell-based; details: Escherichia coli, NIHJJC2, 37° C., 20 hours
Protocol: as §1, §2

Sta. aureus 209P JC-1 = assay: as above; type: cell-based; details: Staphylococcus aureus, 37° C., 20 hours
Protocol: as §1, §2

B. catarrhalis W-0500 = assay: as above; type: cell-based; details: Moraxella catarrhalis, W0500; 37° C., 20 hours; blood agar seed culture; B. catarrhalis W-0500; read-out: Antibacterial activity (MIC)
Protocol: as §1, §2

H. influenza 9334 = assay: as above; type: cell-based; details: 37° C., 20 hours, blood agar seed culture
Protocol: as §1, §2

[3] = system: Sta. aureus MS15009/pMS99; assay: as above; type: cell-based; details: Staphylococcus aureus, MS15009/PMS99, 20 h, read-out: Antibacterial activity (MIC)
Protocol: as §1, §2

[4] = cited from earlier work
[5] = cited from earlier work; remark: listed apart in the source
[6] = vs midecamycin; cited from earlier work
[7] = human compared with rat; cited from earlier work
[8] = Storage stability of synthesis intermediates; type: physicochemical; details: room temperature storage

Row | Compound | MIC (Sta. aureus MS15027) | MIC (Ent. faecalis W-73) | MIC (Sta. aureus M133) | MIC (K. pneumoniae PC1602) | MIC (Sta. aureus M126) | MIC (S. Pyogenes Cook) | MIC (S. pneumoniae Type 1) | MIC [1] | MIC (M. luteus ATCC 9341) | MIC [2] | MIC (S. pneumoniae IP692) | MIC (Sta. aureus MS15026) | MIC (B. catarrhalis W-0506) | MIC (E. coli NIHJ JC-2) | MIC (Sta. aureus 209P JC-1) | MIC (B. catarrhalis W-0500) | MIC (H. influenza 9334) | MIC [3] | also measured
1 | CCC(=O)O[C@@H]1CC(=O)O[C@H](C)C/C=C/C=C/C(=O)[C@H](C)C[C@H](CC=O)[C@H](O[C@@H]2O[C@H](C)[C@@H](O[C@H]3C[C@@](C)(OC)[C@@H](OCCC(C)C)[C@H](C)O3)[C@H](N(C)C)[C@H]2O)[C@H]1OC [Compound (14)] | 0.78 µg/mL (≈ 0.929 µM) | 1.56 µg/mL (≈ 1.86 µM) | 0.78 µg/mL (≈ 0.929 µM) | > 100 µg/mL | > 100 µg/mL | 0.05 µg/mL (≈ 0.0595 µM) | 0.2 µg/mL (≈ 0.238 µM) | 0.78 µg/mL (≈ 0.929 µM) | 0.1 µg/mL (≈ 0.119 µM) | 0.78 µg/mL (≈ 0.929 µM) | 0.1 µg/mL (≈ 0.119 µM) | > 100 µg/mL | 0.78 µg/mL (≈ 0.929 µM) | > 100 µg/mL | 0.2 µg/mL (≈ 0.238 µM) | 0.78 µg/mL (≈ 0.929 µM) | 6.25 µg/mL (≈ 7.44 µM) | > 100 µg/mL | antibacterial activity in rat plasma over time (M. luteus): antibacterial activity sustaining for a prolonged period of time in rat plasma; degree of the decrease in the antibacterial activity in plasma (M. luteus): clearly lower degree of the decrease in the antibacterial activity in plasma, compared with miokamycin; metabolism at the mycarose moiety in plasma (M. luteus): hardly metabolized at the mycarose moiety; antibacterial activities against gram-positive bacteria (gram-positive bacteria): have antibacterial activities against gram-positive bacteria; antibacterial activities compared with miokamycin (gram-positive bacteria; vs miokamycin): excellent antibacterial activities exceeding that of miokamycin
2 | CCC(=O)O[C@@H]1CC(=O)O[C@H](C)C/C=C/C=C/[C@H](OC(C)=O)[C@H](C)C[C@H](CC=O)[C@H](O[C@@H]2O[C@H](C)[C@@H](O[C@H]3C[C@@](C)(OC(C)=O)[C@@H](OC(=O)CC)[C@H](C)O3)[C@H](N(C)C)[C@H]2O)[C@H]1OC [Miokamycin, miokamycin, reference compound] | 0.78 µg/mL (≈ 0.869 µM) | 1.56 µg/mL (≈ 1.74 µM) | 0.78 µg/mL (≈ 0.869 µM) | > 100 µg/mL | > 100 µg/mL | 0.1 µg/mL (≈ 0.111 µM) | 0.2 µg/mL (≈ 0.223 µM) | 0.78 µg/mL (≈ 0.869 µM) | 0.1 µg/mL (≈ 0.111 µM) | 0.78 µg/mL (≈ 0.869 µM) | 0.2 µg/mL (≈ 0.223 µM) | > 100 µg/mL | 1.56 µg/mL (≈ 1.74 µM) | > 100 µg/mL | 0.2 µg/mL (≈ 0.223 µM) | 1.56 µg/mL (≈ 1.74 µM) | 6.25 µg/mL (≈ 6.96 µM) | > 100 µg/mL | antibacterial activity after metabolism in vivo [4]: the antibacterial activity of this antibiotic is reduced; elimination of acyl group at the mycarose moiety in vivo [4]: eliminated in vivo; recovery ratio in urine ([5]; vs midecamycin): superior to midecamycin; dynamics in vivo ([5]; vs natural compounds): superior in the dynamics in vivo to natural compounds; infection-protective action in vivo [6]: superior to midecamycin; metabolic pattern of the deacylation of the mycarose moiety in human [7]: almost similar to that in rat
3 | CCC(=O)O[C@@H]1CC(=O)O[C@H](C)C/C=C/C=C/C(=O)[C@H](C)C[C@H](CC2OCCO2)[C@H](O[C@@H]2O[C@H](C)[C@@H](O)[C@H]([N+](C)(C)[O-])[C@H]2O)[C@H]1OC [Compound (2)] | – | – | – | – | – | – | – | – | – | – | – | – | – | – | – | – | – | – | stability [8]: so stable as to be stored at room temperature for a prolonged period of time
